Two compounds from article PMC10388636 (Nature structural & molecular biology, 2022) can be followed below.

By Kd is commonly meant the concentration at which binding is half-saturated. Read a high Kd as weaker binding.

Assay [1] concerns the target TEL-MTase fusion (nsp14 N7-MTase-TELSAM) (Severe acute respiratory syndrome coronavirus 2, UniProt P0DTD1). Kind of assay: ITC binding to TEL-MTase fusion. Also noted: species or system SARS-CoV-2.
The target of assay [2] is SARS-CoV-2 nsp14/nsp10 complex (Severe acute respiratory syndrome coronavirus 2, UniProt P0DTD1). As to the kind of experiment: ITC binding to full-length nsp14/nsp10 complex.
Assay [3] addresses SARS-CoV-2 MTase domain (residues 289–527) (Severe acute respiratory syndrome coronavirus 2, UniProt P0DTD1). Kind of assay: ITC binding to isolated MTase domain.

As to `Nc1ncnc2c1ncn2[C@@H]1O[C@H](CSCC[C@H](N)C(=O)O)[C@@H](O)[C@H]1O` [SAH, S-adenosylhomocysteine], the Kd in assay [1] came out at 5 µM; in assay [2], 0.3 µM.

Take `C[S+](CC[C@H](N)C(=O)[O-])C[C@H]1O[C@@H](n2cnc3c(N)ncnc32)[C@H](O)[C@@H]1O` (stereo partly shown) [SAM, S-adenosylmethionine]: the Kd in assay [3] is 22 to 25 µM; in assay [2], 5.7 µM.
